In one experiment the target is 5-HT2A receptor (Homo sapiens, UniProt P28223). As to conditions: cited from earlier work.
For another experiment, the system named is neurogenesis. As to conditions: Ly et al. 2018; cited from earlier work.
For a further experiment, the system named is human U87 cells. As to conditions: Zhang et al. 2020; cited from earlier work.
The subject of experiment [1] is PC12 cells treated with conditioned media from 1321N1 human astrocytoma cells. As to the kind of experiment: Neurite outgrowth of PC12 cells treated with conditioned media from 1321N1 cells. Conditions: conditioned media from treated 1321N1 cells; FIG. 11, n=3. It counts as cell-based, rat. From the text: Although the assay aimed to explore potential synergistic effects of combining HE and psilocybin analogs, this was not clearly observed. […] 1321N1 human brain astrocytoma cells are known to excrete neurologically beneficial compounds when stimulated with neurotrophic compounds and fungal extracts including lion's mane (Mori et al., Biological and Pharmaceutical Bulletin, 9: 1727-1732 (2008)). While some fungi have well established mechanisms by which they benefit neurological health, little is known about the role of psilocybin analogs specifically. Generally following the protocol of Mori et al., 2008, 1321N1 human astrocytoma cells were treated with psilocybin analogs, and conditioned media was collected and applied to differentiated rat pheochromocytoma PC12 cells to determine the resulting impact on neurite outgrowth.

In the next experiment the test system is humans. As to conditions: cited from earlier work.
The subject of experiment [2] is nerve growth factor (NGF) protein in human 1321N1 brain cells. Put plainly: ELISA of NGF protein in 1321N1 cells. It counts as cell-based. As to conditions: compared to a vehicle control; n=3; p<0.05. From the text: Accordingly, preliminary research has started to reveal the mechanisms by which psilocybin analogs may confer neurotrophic benefits that facilitate neurite outgrowth.
(§1) See Ly et al., “Psychedelics Promote Structural and Functional Neural Plasticity,” Cell Rep.
A general note: In an ELISA, binding on a coated surface is turned into a signal by an enzyme label.

In experiment [3] the test system is anti-inflammatory cytokine IL-10 in human 1321N1 brain cells. Put plainly: ELISA of IL-10 in 1321N1 cells. It counts as cell-based.
Description: as §1

In experiment [4] the test system is cortical neurons from rat embryo. Put plainly: Neurite outgrowth and length in cultured neurons (Neurofit), tubulin immunostaining, High-Content Screening. Conditions: versus vehicle control, at the concentrations tested.

Entries after “also recorded” stand apart in the source; their conditions may differ. Read-outs that look alike come from different tables or passages of the source.

5-HT2A receptor, sequence (P28223 whole entry): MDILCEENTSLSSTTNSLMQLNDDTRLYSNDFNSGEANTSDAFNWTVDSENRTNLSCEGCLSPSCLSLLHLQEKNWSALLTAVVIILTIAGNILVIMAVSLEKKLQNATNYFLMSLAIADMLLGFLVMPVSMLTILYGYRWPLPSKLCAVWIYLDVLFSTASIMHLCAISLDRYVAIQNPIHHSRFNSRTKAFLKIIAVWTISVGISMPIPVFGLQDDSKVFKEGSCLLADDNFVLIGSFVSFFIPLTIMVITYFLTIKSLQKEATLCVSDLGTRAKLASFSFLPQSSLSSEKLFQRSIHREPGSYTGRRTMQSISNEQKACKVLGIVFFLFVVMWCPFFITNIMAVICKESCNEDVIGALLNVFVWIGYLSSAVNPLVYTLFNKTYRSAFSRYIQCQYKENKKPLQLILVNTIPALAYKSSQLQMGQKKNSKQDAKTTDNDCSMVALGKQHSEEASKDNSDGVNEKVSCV

Turning to `COc1cc(C[C@@H](C)N)c(OC)cc1I` [(R)-2,5-dimethoxy-4-iodoamphetamine], the 5-HT2A receptor activation entry at 5-HT2A receptor is “activate the 5-HT2A receptor”.

Take `COc1cc(CC(C)N)c(OC)cc1I` (centres unmarked) [DOI, 2,5-dimethoxy-4-iodoamphetamine]: the neurogenesis result with neurogenesis is given as “promoted neurogenesis”.

As for `CCN(CC)C(=O)[C@@H]1C=C2c3cccc4[nH]cc(c34)C[C@H]2N(C)C1` [LSD, N,N-diethyl-D-lysergamide], the neurogenesis result with neurogenesis is “promoted neurogenesis”.

As for `CC(=O)O[C@@H]1C[C@@H]2C3=C(C(C)C)CC[C@]3(C)CC[C@@]2(C)[C@@H](O[C@@H]2OC[C@@H](O)[C@H](O)[C@H]2O)C=C1C=O` [P], the inhibition of gliomas result in the experiment with human U87 cells is “inhibitors of gliomas”.

Consider `CNCCc1c[nH]c2cccc(OP(=O)(O)O)c12` [baeocystin, 4-phosphoryloxy-N-methyltryptamine], for which, in experiment [1], the “neurite outgrowth in PC12 cells” value is “induce neurite outgrowth”. In addition, the hallucinogenic effect entry is “gentle hallucinogenic experience” in the experiment on humans (4 mg consumed, Gartz 1991); “did not produce any hallucinogenic effects” in the experiment with humans (oral consumption of 10 mg and 20 mg). The “potency and psychotropic effects” value in the experiment with humans (Gartz 1997) was “roughly akin to psilocybin”.

In the case of `CN(C)CCc1c[nH]c2ccccc12` [dimethyltryptamine, N,N-dimethyltryptamine], the neurogenesis entry in the experiment on neurogenesis was “promoted neurogenesis”.

Consider `NCCc1c[nH]c2cccc(OP(=O)(O)O)c12` [norbaeocystin, 4-phosphoryloxy-tryptamine], for which the “neurite outgrowth in PC12 cells” value in experiment [1] was “induce neurite outgrowth”. In addition, in experiment [2], the “expression of NGF protein” value is on record as “increased expression of NGF protein; also recorded: induces the expression; also recorded: induction of NGF protein”.

`CNCCc1c[nH]c2cccc(O)c12` [norpsilocin, 4-hydroxy-N-methyl-tryptamine]: in experiment [1], the “neurite outgrowth in PC12 cells” value is “induce neurite outgrowth”. Moreover, the “expression of the anti-inflammatory cytokine IL-10” value in experiment [3] is “induces the expression”. Besides, the “neurite outgrowth, in words” value in experiment [4] is recorded as “did not perform better than vehicle control”.

The record behind these values is patent US11850254B2, “Tryptamine compositions for enhancing neurite outgrowth” (TURTLE BEAR HOLDINGS, LLC, priority 2019, dated 2023).
